Patent US11110158B2, “Prostate-associated antigens and vaccine-based immunotherapy regimens” (Pfizer Inc., priority 2012, dated 2021)

Experiments:
human PSMA = test: IFNγ ELISPOT, breaking of immune tolerance in human PSMA transgenic mice; format: in vivo, mouse
Procedure: Eight-to-10 week-old transgenic mice were immunized using PMED method with various PSMA DNA constructs in a prime/boost/boost regimen, two weeks apart between each vaccination. Alternatively, mice were primed with adenovirus vectors encoding the PSMA antigen at 1×10^9 viral particles in 50 μl (PBS) by intramuscular injection. The adenovirus vector (pShuttle-CMV vector from Stratagene) was modified to contain NheI and BgIII restriction sites within the multiple cloning site. The DNA encoding human PSMA modified was then restriction digested with NheI and BgIII, ligated into this vector and sequence confirmed. The pShuttle human PSMA modified vector was then recombined with the pAdEasy-1 vector and virus was propagated according to the AdEasy system (Stratagene). Twenty-days later, they were boosted with PMED as described above. In each of the regimens used, antigen specific T cell response was measured 7 days after the last immunization in an interferon-gamma (IFNγ) ELISPOT assay. The ELISPOT assay is similar to the sandwich enzyme-linked immunosorbent assay (ELISA). Briefly, a capture antibody specific to IFNγ BD Bioscience, #51-2525kc) is coated onto a polyvinylidene fluoride (PVDF) membrane in a microplate overnight at 4° C. The plate is blocked with serum/protein to prevent nonspecific binding to the antibody. […]

[1] = system: hPSMA full-length protein; test: IFN-γ ELISPOT, hPSMA modified versus full-length DNA vaccine in Pasteur (HLA-A2/DR1) transgenic mice; format: in vivo, human
Description: The immune responses induced by DNA vaccination using a construct encoding an immunogenic PSMA polypeptide (the “human PSMA modified antigen” or “hPSMA modified”) consisting 15-750 amino acids (aa) of the native human PSMA protein of SEQ ID NO: 1 were compared with those induced by the native human full-length PSMA protein (hPSMA full length). Groups of female C57BL/6 mice or female Pasteur (HLA-A2/DR1) transgenic mice were primed on day 0 and boosted on days 14, 28 by PMED administration with a 2 μg dose of a DNA vaccine encoding either hPSMA full-length or hPSMA modified protein. Mice were bled and sacrificed on day 35 (7 days after the third vaccination) and T cell immune responses against the hPSMA full-length protein were determined in splenocytes by IFN-γ ELISPOT assay. For C57BL/6 mice, single cell suspensions of 5×10^5 splenocytes from individual animals were plated per well with […] purified hPSMA protein, 5×10^4 TRAMP-C2 cells alone, or TRAMP-C2 cells expressing hPSMA or a PSMA-PSA-PSCA fusion protein. […] Responses in Pasteur mice were also determined using 10 μg/ml purified PSMA protein or 5×10^4 SK-Mel5 cells that had been transduced with Adenoviral vectors expressing a control protein (Ad-eGFP) or the full-length human PSMA protein (Ad-hPSMA). […] The number of IFN-γ SFC was counted by a CTL reader. […]

PSMA modified: membrane-bound polypeptide of amino acids 15-750 of human PSMA, SEQ ID NO: 9; tested as DNA construct
# of positive (human PSMA; Table 12, human PSMA transgenic mice with SFC>50 / mice tested): 2/10
PSMA transgenic mice able to mount a T cell response to human PSMA (human PSMA; human PSMA transgenic mice, SFC>50 positive): 20%
IFN-γ T cell immune responses to the HLA-A2-restricted CD8+ T cell epitopes ([1]; Example 7, FIG. 27A, day 35, difference between groups not significant): highest magnitude of IFN-γ T cell immune responses
IFN-γ SFC to the purified hPSMA protein ([1]; Example 7, FIG. 27B, day 35, versus hPSMA full-length vaccine): higher frequencies of IFN-γ SFC
